# Test results published in PubChem BioAssay AID328 (DTP/NCI, 2004).
# Values joined by “and” are separate entries in the source; they are usually repeats but may differ in a detail not shown here. Identical values can stand only once. Toxic doses and inconclusive results are not listed.
# Tested on: BDF1 mice, P388 leukemia ip, median survival T/C
# Experiment: NCI In Vivo Anticancer Drug Screen. Data for tumor model P388 Leukemia (intraperitoneal) in B6D2F1 (BDF1) mice
# Conditions: endpoint: median survival time, higher = longer survival
# Outline: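 T/C = treated-group survival ÷ vehicle-control survival; tumour transplanted into mice before dosing.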
smiles,measurement,setting,value
COc1ccc(CC2C(=O)NC(C)C(=O)N(C)C3Cc4ccc(cc4)Oc4cc(ccc4O)CC(C(=O)NC(C)C(=O)NC(C)C(=O)N2C)N(C)C3=O)cc1 (stereo unspecified),T/C,"dose: 0.04 mg/kg/injection, schedule: Q01DX009 (ip), vehicle: saline",163 % of control
same,T/C,"dose: 0.07 mg/kg/injection, schedule: Q01DX009 (ip), vehicle: saline",181 % of control
same,T/C,"dose: 0.11 mg/kg/injection, schedule: Q01DX009 (ip), vehicle: saline with Tween-80",196 % of control
same,T/C,"dose: 0.11 mg/kg/injection, schedule: Q01DX009 (ip), vehicle: saline",163 % of control
same,T/C,"dose: 0.16 mg/kg/injection, schedule: Q01DX009 (ip), vehicle: saline with Tween-80",216 % of control
same,T/C,"dose: 0.25 mg/kg/injection, schedule: Q01DX009 (ip), vehicle: saline with Tween-80",160 % of control and 186 % of control
same,T/C,"dose: 0.5 mg/kg/injection, schedule: Q01DX009 (ip), vehicle: saline with Tween-80",186 % of control
same,T/C,"dose: 1.0 mg/kg/injection, schedule: Q01DX009 (ip), vehicle: saline with Tween-80",189 % of control
same,T/C,"dose: 2.0 mg/kg/injection, schedule: Q01DX009 (ip), vehicle: saline with Tween-80",208 % of control
same,T/C,"dose: 4.32 mg/kg/injection, schedule: Q04DX003 (ip), vehicle: other",161 % of control and 212 % of control
same,T/C,"dose: 7.2 mg/kg/injection, schedule: Q04DX003 (ip), vehicle: other",163 % of control and 208 % of control
same,T/C,"dose: 10.0 micrograms/kg/injection, schedule: Q01DX009 (ip), vehicle: saline with Tween-80",108 % of control
same,T/C,"dose: 20.0 micrograms/kg/injection, schedule: Q01DX009 (ip), vehicle: saline with Tween-80",108 % of control
same,T/C,"dose: 40.0 micrograms/kg/injection, schedule: Q01DX009 (ip), vehicle: saline with Tween-80",119 % of control
CCCCSc1cc(Cc2cc(C)ccc2O)c(O)c(Cc2cc(C)ccc2O)c1,T/C,"dose: 50.0 mg/kg/injection, schedule: Q01DX009 (ip), vehicle: other",107 % of control
same,T/C,"dose: 100.0 mg/kg/injection, schedule: Q01DX009 (ip), vehicle: other",107 % of control
CCCCC(NC(C)=O)C(=O)O (stereo unspecified),T/C,"dose: 100.0 mg/kg/injection, schedule: Q01DX009 (ip), vehicle: saline with Tween-80",119 % of control
same,T/C,"dose: 400.0 mg/kg/injection, schedule: Q01DX009 (ip), vehicle: saline with Tween-80",113 % of control
COC(=O)C[C@](O)(CCC(C)(C)O)C(=O)O[C@@H]1C(OC)=C[C@]23CCCN2CCc2cc4c(cc2[C@H]13)OCO4,T/C,"dose: 0.22 mg/kg/injection, schedule: Q01DX009 (ip), vehicle: saline",190 % of control
same,T/C,"dose: 0.25 mg/kg/injection, schedule: Q01DX009 (ip), vehicle: saline",172 % of control and 209 % of control and 215 % of control
same,T/C,"dose: 0.25 mg/kg/injection, schedule: Q03HX016 (ip), vehicle: saline",163 % of control
same,T/C,"dose: 0.25 mg/kg/injection, schedule: Q03HX024 (ip), vehicle: saline",177 % of control
same,T/C,"dose: 0.33 mg/kg/injection, schedule: Q01DX009 (ip), vehicle: saline",204 % of control
same,T/C,"dose: 0.5 mg/kg/injection, schedule: Q01DX006 (iv), vehicle: saline",110 % of control
same,T/C,"dose: 0.5 mg/kg/injection, schedule: Q01DX009 (ip), vehicle: water",261 % of control and 294 % of control
same,T/C,"dose: 0.5 mg/kg/injection, schedule: Q03HX008 (ip), vehicle: saline",172 % of control
same,T/C,"dose: 0.5 mg/kg/injection, schedule: Q03HX016 (ip), vehicle: saline",163 % of control
same,T/C,"dose: 0.5 mg/kg/injection, schedule: Q03HX024 (ip), vehicle: saline",236 % of control
same,T/C,"dose: 1.0 mg/kg/injection, schedule: Q01DX009 (ip), vehicle: water",350 % of control and 405 % of control
same,T/C,"dose: 1.0 mg/kg/injection, schedule: Q01DX009 (sc), vehicle: saline",165 % of control
same,T/C,"dose: 1.0 mg/kg/injection, schedule: Q01DX010 (oral), vehicle: saline",115 % of control
same,T/C,"dose: 1.0 mg/kg/injection, schedule: Q03HX016 (ip), vehicle: saline",109 % of control
same,T/C,"dose: 1.0 mg/kg/injection, schedule: Q03HX024 (ip), vehicle: saline",100 % of control
same,T/C,"dose: 2.0 mg/kg/injection, schedule: Q01DX006 (iv), vehicle: saline",205 % of control
same,T/C,"dose: 2.0 mg/kg/injection, schedule: Q01DX009 (ip), vehicle: water",205 % of control
same,T/C,"dose: 2.0 mg/kg/injection, schedule: Q01DX009 (oral), vehicle: saline",210 % of control
same,T/C,"dose: 2.0 mg/kg/injection, schedule: Q01DX009 (sc), vehicle: saline",215 % of control
same,T/C,"dose: 2.0 mg/kg/injection, schedule: Q01DX010 (oral), vehicle: saline",160 % of control
same,T/C,"dose: 2.0 mg/kg/injection, schedule: Q01DX010 (sc), vehicle: saline",235 % of control
same,T/C,"dose: 2.0 mg/kg/injection, schedule: Q04DX003 (ip), vehicle: saline",154 % of control
same,T/C,"dose: 4.0 mg/kg/injection, schedule: Q01DX009 (ip), vehicle: saline",150 % of control
same,T/C,"dose: 4.0 mg/kg/injection, schedule: Q01DX010 (sc), vehicle: saline",100 % of control
same,T/C,"dose: 8.0 mg/kg/injection, schedule: Q01DX001 (ip), vehicle: saline",118 % of control
same,T/C,"dose: 8.0 mg/kg/injection, schedule: Q01DX010 (oral), vehicle: saline",90 % of control
same,T/C,"dose: 8.0 mg/kg/injection, schedule: Q04DX003 (ip), vehicle: saline",104 % of control
same,T/C,"dose: 8.0 mg/kg/injection, schedule: Q08DX002 (ip), vehicle: saline",100 % of control
